The nature of series [1]: Pharmacokinetic study of intravenous injection in rats. To be noted: SD, rat, plasma, 1 mg/kg. The source says: Through the in vivo drug metabolism test in rats, values such as Cmax, t1/2, AUC, MRT and B/P ratio of the compound in vivo were used as indicators to evaluate the metabolism of the compound in rats.
1. Pharmacokinetic Study of Intravenous Injection of Dezocine and Analogues Thereof in Rats
Mixing the test compound with an appropriate amount of physiological saline solution of 20% polyethylene glycol 400, followed by vortex and sonicate, and adjusting the pH to 4-5 with hydrochloric acid to obtain 5 mg/mL approximately clear solution, filtering the solution by microporous filtering film to be used. Selecting 6 to 9 weeks old SD rats (Shanghai Sleek Laboratory Animal Co., Ltd.) and intravenously injecting the test compound solution at a dose of 1 mg/kg. Collecting whole blood in certain time to prepare and obtain plasma. Analyzing drug concentrations by LC-MS/MS method and calculating pharmacokinetic parameters using Phoenix WinNonlin software (Pharsight, USA).

Series [2] addresses T1, κ opioid receptor (Homo sapiens, UniProt P41145).
T1 construct: expressed in transfected cells
Briefly: FLIPR intracellular calcium signal test, HEK293-κ cells. To be noted: for pEC50: EC50 (activation) test, read-out: Kapp receptor EC50; for pIC50: IC50 (inhibition) test against EC80 of positive agonist, read-out: Kapp receptor IC50. Format: cell-based. Here is the method: (§1) Fluorescence imaging plate reader FLIPR was used to detect changes of intracellular calcium signals. EC50 and IC50 values of the compounds were used as indicators to evaluate the activation or inhibition of the compounds on μ, κ, and δ opioid receptors.
(§2) Cell lines: HEK293-μ, HEK293-κ and HEK293-δ, stable-transfected cell lines HEK293-μ, HEK293-κ and HEK293-δ; Cell culture media (DMEM, Invitrogen #11965118, 10% fetal bovine serum Invitrogen #10099141, Geneticin Selective Antibiotic (G418) 300 μg/mL, Invitrogen #10131027, Blasticidin-S HCL 2 ug/mL Invitrogen #A1113902)
(§3) 1. Cell Seeding (HEK293-μ, HEK293-κ and HEK293-δ Cells)
(§4) 1) Preheating medium, pancreatic enzyme, and DPBS in a 37° C. water bath. Aspirating the culture medium from the cell culture flask and washing it with 10 mL DPBS;
(§5) 2) Adding the preheated pancreatic enzyme solution to the cell culture flask, rotating the flask slightly to make the pancreatic enzymes evenly cover the cell surface of the flask, and then putting it into a 37° C., 5% CO2 incubator to digest for 1-2 minutes;
(§6) 3) Suspending the cells with 10-15 mL culture medium in each T150 cm^2 cell culture flask, centrifugating at 800 rpm for 5 minutes, and resuspending the cells with 10 mL culture medium, aspirating 1 mL cell resuspension to be counted with Vi-cell;
(§7) 4) Diluting HEK293-μ, HEK293-κ and HEK293-δ cells to 5×10^5/mL with culture medium, use multichannel pipette to add diluted cells into 384 plate (Greiner #781946) (50 μL/well, 25000 cells/well for HEK293-μ, HEK293-κ and HEK293-δ cells). Placing the cell plate in a 37° C., 5% CO2 incubator overnight.
(§8) 2. Adding Compound Samples:
(§9) 1) Diluting the compound to 20 mM with DMSO, 3 fold diluted, 8 gradients, double reduplicative wells, and adding it to the compound plate using an Echo ultrasonic liquid handler device (Echo liquid handler).
(§10) 1) Washing off the cell culture medium in 384 plate with vacuum pump, adding 20 μL Fluo-4 Direct fluorescent dye, then incubating in a 37° C., 5% CO2 incubator for 50 minutes, followed by equilibrating at room temperature for 10 minutes.
(§11) 2) EC50 test: Adding 20 uL HBSS buffer (containing 20 mM HEPES) to the compound plate, mixing well and centrifugating. Placing the cell plate and compound plate into FLIPR and reading the fluorescence value.
(§12) Calculating the EC80 value with the EC50 value of the positive agonist, preparing 4× EC80 solution, adding it to the 384 compound plate by multichannel pipette, and mixing well and centrifugating.
(§13) 4) IC50 test: In FLIPR, successively placing 4× EC80 plate, cell plate, FLIPR tip, running the program and reading the fluorescence value.
(§14) 4. Data Analyzing: Using Prism 5.0 to Analyze the Data and Calculate the EC50 and IC50 Values of the Compounds.
For orientation: Calcium flux is commonly read through the fluorescence of an indicator in the cells.

The target of series [3] is T2, δ opioid receptor (Homo sapiens, UniProt P41143).
T2 construct: expressed in transfected cells
T2 sequence (P41143 whole entry): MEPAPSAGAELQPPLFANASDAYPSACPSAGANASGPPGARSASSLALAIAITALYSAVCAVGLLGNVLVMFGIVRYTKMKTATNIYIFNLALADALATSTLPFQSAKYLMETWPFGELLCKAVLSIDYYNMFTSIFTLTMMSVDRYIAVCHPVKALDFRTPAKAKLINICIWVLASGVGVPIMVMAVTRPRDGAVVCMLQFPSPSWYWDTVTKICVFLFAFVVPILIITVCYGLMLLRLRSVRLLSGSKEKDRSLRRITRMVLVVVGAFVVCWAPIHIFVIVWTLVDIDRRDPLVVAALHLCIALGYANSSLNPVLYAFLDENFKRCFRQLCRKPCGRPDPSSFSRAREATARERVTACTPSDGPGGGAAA
Briefly: FLIPR intracellular calcium signal test, HEK293-δ cells. Format: cell-based. To be noted: for pEC50: EC50 (activation) test, read-out: Delt receptor EC50; for pIC50: IC50 (inhibition) test against EC80 of positive agonist, read-out: Delt receptor IC50. Here is the method: as §1, §2, §3, §4, §5, §6, §7, §8, §9, §10, §11, §12, §13, §14

Series [4] is described as follows: Brain distribution study of intravenous injection in rats. The conditions noted are these: rat, 1 mg/kg, brain tissue to plasma concentration ratio; for B/P ratio (0.25 h): 0.25 h after dosing; for B/P ratio (2 h): 2 h after dosing. The protocol:
2. Brain Distribution Study of Intravenous Injection of Dezocine and Analogues Thereof in Rats
Intravenously injecting the test compound solution in the same manner as example 1 at a dose of 1 mg/kg. Executing animals with carbon dioxide 15 minutes and 2 hours after dosing, collecting whole blood and brain tissue sample, centrifugating the whole blood to obtain plasma, and homogenizing the brain tissue with triple volumes of deionized water. Analyzing drug concentration of the plasma and brain homogenate samples by LC-MS/MS method, and calculating the concentration ratio of brain tissue to plasma (B/P ratio).

Series [5] can be described thus: Pharmacokinetics of intramuscular injection of Compound 21 and prodrug thereof in rats. The conditions noted are these: SD, in vivo, im, rat. The source says:
3. Pharmacokinetics of Intramuscular Injection of Compound 21 and Prodrug Thereof in Rats
Mixing the test compound with an appropriate amount of sesame oil, followed by vortex and sonicate, to prepare and obtain 25 μmol/mL homogeneous suspension. […] Collecting whole blood in certain time, adding precipitant (acetonitrile, methanol and analytical internal standard) and centrifugating.

Series [6] concerns the target T3, μ opioid receptor (Homo sapiens, UniProt P35372).
T3 construct: expressed in transfected cells
Briefly: FLIPR intracellular calcium signal test, HEK293-μ cells. The format is cell-based. The conditions noted are these: for pEC50: EC50 (activation) test, read-out: Mu receptor EC50; for pIC50: IC50 (inhibition) test against EC80 of positive agonist, read-out: Mu receptor IC50. Here is the method: as §1, §2, §3, §4, §5, §6, §7, §8, §9, §10, §11, §12, §13, §14

9 compounds from US10414718B2, “Dezocine analogue” (priority 2016, dated 2019) can be followed below.

For orientation: Vd means the apparent volume that relates the amount in the body to the concentration in plasma or blood. Low readings indicate confinement near the circulation, high ones extensive tissue distribution. One may read the clearance as the rate of elimination divided by the concentration. Low values mean a low capacity for elimination, high ones a high capacity for elimination. Broadly, the half-life is the time needed for the level to fall by half in the phase considered. The term pEC50 denotes the negative decadic logarithm of the EC50, by convention in mol/L. As a reminder, the pIC50 is the IC50 on a negative log10 scale, so that one unit is a factor of ten. Broadly, the Cmax is the highest concentration seen after dosing. One may read the Tmax as the time at which the peak concentration occurs.

Molecules are shown by their SMILES. pEC50, pIC50: −log10 of the molar value. Counter-ions that a name gives are not always drawn. Like-named read-outs stand apart in the source and are kept apart here. Some results are limits rather than exact numbers.

T1 sequence (P41145 whole entry): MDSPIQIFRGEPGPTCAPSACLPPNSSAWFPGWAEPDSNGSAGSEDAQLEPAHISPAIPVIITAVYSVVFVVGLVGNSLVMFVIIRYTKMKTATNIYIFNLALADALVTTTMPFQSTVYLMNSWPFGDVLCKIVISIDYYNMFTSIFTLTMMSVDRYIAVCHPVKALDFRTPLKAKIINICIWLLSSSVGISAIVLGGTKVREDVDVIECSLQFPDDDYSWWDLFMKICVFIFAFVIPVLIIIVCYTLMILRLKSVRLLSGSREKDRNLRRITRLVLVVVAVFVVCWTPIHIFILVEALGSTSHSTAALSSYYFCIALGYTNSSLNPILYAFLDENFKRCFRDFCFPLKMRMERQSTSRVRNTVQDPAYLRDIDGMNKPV
T3 sequence (P35372 whole entry): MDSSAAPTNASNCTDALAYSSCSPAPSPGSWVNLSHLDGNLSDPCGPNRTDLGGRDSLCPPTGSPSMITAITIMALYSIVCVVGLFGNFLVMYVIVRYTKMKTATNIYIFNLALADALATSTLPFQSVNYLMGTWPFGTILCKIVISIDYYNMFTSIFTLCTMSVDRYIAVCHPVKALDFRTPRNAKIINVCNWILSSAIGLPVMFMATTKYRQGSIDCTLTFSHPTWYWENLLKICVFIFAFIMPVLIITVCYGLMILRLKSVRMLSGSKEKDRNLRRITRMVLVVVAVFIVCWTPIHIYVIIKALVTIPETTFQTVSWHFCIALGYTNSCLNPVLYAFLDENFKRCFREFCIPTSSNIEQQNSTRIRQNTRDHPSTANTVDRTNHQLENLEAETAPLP

In series [1], `C[C@@]12CCCCC[C@@H](Cc3ccc(O)cc31)[C@@H]2N` (relative stereo) [Dezocine, (−)-[5R-(5α,11α,13S*)]-13-amino-5,6,7,8,9,10,11,12-octahydro-5-methyl-5,11-methan obenzocyclodecen-3-ol] returned an AUC(0-t) of 0.485 µM·h, a C0 of 684 nM, an MRT last of 1.22 h and a Vd of 12.2 L/kg. In series [1], this compound gave a clearance of 139 mL/min/kg and a half-life of 1.26 h.
As for `C[C@@]12CCCCC[C@@H](Cc3c(F)cc(O)cc31)[C@@H]2N` [Compound 21], in series [2], the pEC50 was less than 4.00 and the pIC50 is 5.00 to 6.00. Also, in series [3], the negative-log EC50 (pEC50) was less than 4.00 and the pIC50 was 5.00 to 6.00. In series [1], this compound gave an AUC(0-t) of 0.387 µM·h, a C0 of 493 nM, an MRT last of 1.35 h and a Vd of 16.2 L/kg. In series [1], the clearance amounted to 155 mL/min/kg and the half-life is 1.42 h. In series [4], the “B/P ratio (0.25 h)” value stood at 13.3 and the “B/P ratio (2 h)” value is 19.8. The half-life in series [5] (40 umol/kg, Compound 21 itself dosed at 40 μmol/kg, sesame oil suspension) was 4.2 h. In series [5] (40 umol/kg, Compound 21 itself dosed at 40 μmol/kg, sesame oil suspension, read-out: AUC0-last), the AUC(0-t) is 3.99 µM·h. Moreover, the Cmax in series [5] (40 umol/kg, Compound 21 itself dosed at 40 μmol/kg, sesame oil suspension, read-out: Cmax) came to 1750 nM. For the same compound, the MRT last in series [5] (40 umol/kg, Compound 21 itself dosed at 40 μmol/kg, sesame oil suspension, read-out: MRT0-last) is 2.82 h. For the same compound, the Tmax in series [5] (40 umol/kg, Compound 21 itself dosed at 40 μmol/kg, sesame oil suspension, read-out: Tmax) was determined as 0.5 h. In addition, in series [6], the pEC50 is not below 7.00 and the pIC50 was not below 7.00.
For `C[C@]12CCCCC[C@@H](Cc3c(Cl)cc(O)cc31)[C@@H]2N` [Compound 23], in series [2], the pEC50 is less than 4.00 and the pIC50 is 5.00 to 6.00. For the same compound, in series [3], the pEC50 is less than 4.00 and the pIC50 is less than 4.00. In series [1], this compound gave an AUC(0-t) of 0.341 µM·h, a C0 of 362 nM, an MRT last of 1.65 h and a Vd of 20.6 L/kg. In series [1], this compound showed a clearance of 165 mL/min/kg and a half-life of 1.6 h. Moreover, in series [4], the “B/P ratio (0.25 h)” value is recorded as 16.7 and the “B/P ratio (2 h)” value came out at 27.9. Moreover, in series [6], the pEC50 was not below 7.00 and the pIC50 is not below 7.00.
`CC12CCCCCC(Cc3c(O)cc(O)cc31)C2N` (stereo not shown) [Compound 27]: the pEC50 in series [2], in series [3] and in series [6] was less than 4.00 each time. In addition, the pIC50 in series [2] is 4.00 to 5.00; in series [3] it was less than 4.00; in series [6], 5.00 to 6.00.
Consider `CCCC12CCCCC(Cc3c(F)cc(O)cc31)C2N` (stereo not shown) [Compound 30], for which the results for the pEC50 in series [2], in series [3] and in series [6] were less than 4.00, less than 4.00 and 6.00 to 7.00, respectively. The pIC50 in series [2] was 6.00 to 7.00; in series [3], 4.00 to 5.00; in series [6] it was 6.00 to 7.00.
Regarding `CC(C)CC12CCCCC(Cc3c(F)cc(O)cc31)C2N` (stereo not shown) [Compound 31], the results for the pEC50 in series [2], in series [3] and in series [6] were less than 4.00, less than 4.00 and 4.00 to 5.00, respectively. The values for the negative logarithm of the IC50 (pIC50) in series [2], in series [3] and in series [6] were 4.00 to 5.00, less than 4.00 and 4.00 to 5.00, respectively.
Consider `C[C@@]12CCCCC[C@@H](Cc3c(F)cc(OC(=O)CCCCC(=O)Oc4cc(F)c5c(c4)[C@@]4(C)CCCCC[C@@H](C5)[C@@H]4N)cc31)[C@@H]2N` [Compound 34], for which the AUC(0-t) in series [5] (20 umol/kg, carboxylic diester prodrug 20 μmol/kg, analyte: prodrug itself, read-out: AUC0-last of the prodrug) worked out at 0.00295 µM·h. The Cmax in series [5] (20 umol/kg, carboxylic diester prodrug 20 μmol/kg, analyte: prodrug itself, read-out: Cmax of the prodrug) was determined as 3.91 nM. In addition, the MRT last in series [5] (20 umol/kg, carboxylic diester prodrug 20 μmol/kg, analyte: prodrug itself, read-out: MRT0-last of the prodrug) is 0.539 h. Besides, the Tmax in series [5] (20 umol/kg, carboxylic diester prodrug 20 μmol/kg, analyte: prodrug itself, read-out: Tmax of the prodrug) turned out to be 0.25 h.
For `CC12CCCCCC(Cc3cc(Cl)c(O)cc31)C2N` (stereo not shown) [Hydrochloride of Compound 16], the pEC50 in series [2] was less than 4.00; in series [3], less than 4.00; in series [6] it was 4.00 to 5.00. The pIC50 in series [2] is 5.00 to 6.00; in series [3], less than 4.00; in series [6], 5.00 to 6.00.
For the compound `CC12CCCCCC(Cc3cc(F)c(O)cc31)C2N` (stereo not shown) [Hydrochloride of Compound 17], the pEC50 is less than 4.00 in series [2], less than 4.00 in series [3] and 5.00 to 6.00 in series [6]. The pIC50 was 4.00 to 5.00 in series [2], less than 4.00 in series [3] and 5.00 to 6.00 in series [6].
